Among the data in patent publication US5223517A, “Heterocyclically substituted cycloalkano[b]-indolesulphonamides” (Bayer Aktiengesellschaft, priority 1990, dated 1993) are IC50 and minimal effective concentration values, retold here.

SMILES strings stand for the structures. Where a name gives a salt, the structure may show the parent alone.

In one test the target is T1, thromboxane synthase (Homo sapiens, UniProt P24557).
T1 construct: 1 ml of the platelet suspension and 0.01 ml of the test preparation in 10% DMSO are incubated at 37° C. for 2 min; endogenous in cells; host or cells: washed human platelets from blood of healthy donors
T1 sequence (P24557 1-533): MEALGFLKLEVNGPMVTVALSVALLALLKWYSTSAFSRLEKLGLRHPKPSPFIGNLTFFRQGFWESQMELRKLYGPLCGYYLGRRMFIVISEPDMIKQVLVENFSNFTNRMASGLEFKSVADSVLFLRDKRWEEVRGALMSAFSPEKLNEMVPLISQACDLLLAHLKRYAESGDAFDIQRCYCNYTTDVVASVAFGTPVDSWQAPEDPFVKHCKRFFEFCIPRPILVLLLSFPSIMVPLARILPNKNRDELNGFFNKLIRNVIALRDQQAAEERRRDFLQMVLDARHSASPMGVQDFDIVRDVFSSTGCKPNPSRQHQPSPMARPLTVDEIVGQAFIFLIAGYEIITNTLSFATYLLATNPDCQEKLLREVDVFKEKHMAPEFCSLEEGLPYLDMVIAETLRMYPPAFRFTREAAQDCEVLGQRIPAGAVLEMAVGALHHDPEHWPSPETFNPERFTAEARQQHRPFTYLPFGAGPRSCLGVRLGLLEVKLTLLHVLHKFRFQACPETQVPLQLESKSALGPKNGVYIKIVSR
Nature of the test: Measurement of the thromboxane synthase in washed human platelets. It is filed as cell-based. The note with it: 3H-arachidonic acid, 37° C., 10 min, read-out: IC50 (50% inhibition of thromboxane formation compared to the control).
In the case of `O=C(O)CCn1c2c(c3cc(Cc4cccnc4)ccc31)CC(NS(=O)(=O)c1ccc(F)cc1)CC2` (stereo not shown) [Example 11, 9-(2-Carboxyethyl)-3-(4-fluorophenylsulphonamido)-6-(3-pyridyl-methyl)-1,2,3,4-tetrahydro-carbazole hydrochloride], the half-maximal inhibitory concentration (IC50) was determined as 200 nM.
On the same count and under the same terms, in the case of `O=C(O)CCn1c2c(c3ccc(-c4cccnc4)cc31)CC(NS(=O)(=O)c1ccc(F)cc1)CC2` (stereo not shown) [Example 24] it was 100 nM; in that of `O=C(O)CCn1c2c(c3cc(CCc4cccnc4)ccc31)CC(NS(=O)(=O)c1ccc(F)cc1)CC2` (stereo not shown) [Example 17], 1000 nM.

The subject of the next test is platelet aggregation (platelet-rich citrate plasma, collagen). Nature of the test: platelet aggregation-inhibiting action (TAI), collagen-induced, platelet-rich plasma, turbidometric method. It is filed as cell-based. The note with it: Homo sapiens, 0.1 h, range of the minimum effective concentration, PRP, 37° C., result after 6 minutes, read-out: TAI threshold concentration. An excerpt: Blood from healthy subjects of both sexes was used for the determination of the platelet aggregation-inhibiting action. As an anticoagulant, one part of 3.8% strength aqueous sodium citrate solution was admixed to 9 parts of blood. Platelet-rich citrate plasma (PRP)^1 is obtained from this blood by means of centrifugation (Jurgens/Beller, Klinische Methoden der Blutgerinnungsanalyse (Clinical Methods of Blood Coagulation Analysis); Thieme Verlag, Stuttgart, 1959).
For these investigations, 0.8 ml of PRP and 0.1 ml of the active compound solution were preincubated in a water bath at 37° C. The platelet aggregation was then determined by the turbidometric method (Born, G. V. R., J. Physiol. (London), 162, 67, 1962) in an aggregometer at 37° C. (Therapeutische Berichte 47, 80-86, 1975). To this end, 0.1 ml of collagen, an aggregation-inducing agent, was added to the preincubated sample. The change in the optical density in the sample of PRP^1 was recorded during a period of 6 minutes and the results was determined after 6 minutes. To do this, the percentage inhibition is calculated compared to the control.
The range of the minimum effective concentration is given as the threshold concentration.
Regarding `O=C(O)CCn1c2c(c3cc(C(=O)CCc4cccnc4)ccc31)CC(NS(=O)(=O)c1ccc(F)cc1)CC2` (stereo not shown) [Example 20], the minimal effective concentration fell in the range of 0.03 to 0.1 µg/mL.
On the same count and under the same terms, in the case of `O=C(O)CCn1c2c(c3cc(CCc4cccnc4)ccc31)CC(NS(=O)(=O)c1ccc(F)cc1)CC2` (stereo not shown) [Example 17] it was 0.03 to 0.1 µg/mL.
The same measure, in the same setting: in the case of `O=C(O)CCn1c2c(c3c(Cc4cccnc4)cccc31)CC(NS(=O)(=O)c1ccc(F)cc1)CC2` (stereo not shown) [Example 18] it was 0.3 to 1 µg/mL.
The same measure, in the same setting: in the case of `O=C(O)CCn1c2c(c3cc(OCc4ccccn4)ccc31)CC(N(Cc1ccccn1)S(=O)(=O)c1ccc(F)cc1)CC2` (stereo not shown) [Example 25] it was 0.03 to 0.1 µg/mL.
